Key:
[1] = tested on: Normal Human Cardiac Fibroblasts (ventricle) (NHCF-V); assay: TGFβ1-induced expression of α-SMA protein in human cardiac fibroblasts (ELISA); type: cell-based; conditions: concentration of 1 μM; TGFβ1 3 ng/ml, 48 hours
Description: NTZ (A) or TZ (B) were added to serum-deprived cardiac fibroblasts (NHCF) 1 hour before the activation with TGFβ1 (3 ng/ml). After 48 hours of incubation, the expression of α-SMA was measured by ELISA. The obtained values were transformed into percentage inhibition over TGFβ1 control. Data are presented as mean (triplicates)±standard deviation (SD). Statistical analyses were performed by one-way ANOVA followed by Bonferroni post-hoc tests, using Sigma Plot 11.0 software. [*: p<0.05; **: p<0.01; ***: p<0.001 (comparison versus TGFβ1 3 ng/mL group)].
The Normal Human Cardiac Fibroblasts (ventricle) (NHCF-V) (Lonza) were isolated from normal adult heart tissue. Cells were cultured in Fibroblast Basal Medium (FBM) (Lonza cat # CC-3131) that was supplemented with FGM™-3 BulletKit™ kit (Lonza cat # CC-4525). The complete medium contains 10% fetal bovine serum. For the activation experiments with TGFβ1, the NHCF-V were plated at a density of 6×10^3 cells per well in 96-well plates. The next day, cell-culture medium was removed, and cells were washed with PBS (Invitrogen cat #14190). NHCF were deprived for 24 hours in serum-free, insulin-free and rhFGF-B-free medium. […]
The level of α-SMA was measured using a Sandwich ELISA. […]

[2] = tested on: human primary hepatic stellate cells (hHSC); assay: COL1A1 transcripts in TGFβ1-induced human HSC (RT-qPCR); type: cell-based; conditions: TGFβ1 1 ng/ml, 24 hours
Description: Serum-deprived HSC were preincubated for 1 hour with NTZ (A) or TZ (B) before the activation with TGFβ1 (1 ng/ml). After 24 hours of incubation, the expression of COL1A1 was measured by RT-qPCR. Expression values were transformed into fold induction over TGFβ1 control. Data are presented as mean (triplicates)±standard deviation (SD). Statistical analyses were performed by one-way ANOVA followed by Bonferroni post-hoc tests, using Sigma Plot 11.0 software. [*: p<0.05; **: p<0.01; ***: p<0.001 (comparison versus TGFβ1 1 ng/mL group)]. The human primary hepatic stellate cells (hHSC) (Innoprot) were cultured under standard conditions, as described above. The cells were subsequently plated at a density of 7×10^4 cells/well into 24-well plates for gene expression studies, and at a density of 2×10^4 cells/well into 96-well plates for the measure of α-SMA by ELISA. The next day, cell culture medium was removed, and cells were washed with PBS (Invitrogen cat #14190). hHSC were deprived for 24 hours in serum-free and SteCGS-free medium. […] Quantitative PCR was then carried out using the MyiQ Single-Color Real-Time PCR Detection System (Biorad). […] Expression levels were determined using the standard curve equation for both the housekeeping gene and the target gene (taking into account the specific PCR efficiency of each target gene).

With `O=C(Nc1ncc([N+](=O)[O-])s1)c1ccccc1O` [TZ, 2-hydroxy-N-(5-nitro-2-thiazolyl)benzamide] the “antifibrotic effects (α-SMA) in normal human cardiac fibroblasts” value [1] was “significant antifibrotic effects” and the COL1A1 transcripts [2] was “reduce”.

— US10905680B2, “Methods of treatment for cholestatic and fibrotic diseases” (Genfit, priority 2016, dated 2021)
